This is an account of results in the ASAP Discovery antiviral challenge data (2025).

The conditions of data set [1]: human; liver_microsomes.
The conditions of data set [2]: mdck_mdr1.
The conditions of data set [3]: mouse; liver_microsomes.
Test in data set [4]: not given
This is another data set of the same source.

SMILES strings stand for the structures. In brackets after ≈: the same amount, converted by molar mass. Several values for one entry are separate records, joined by “and”; a condition that tells them apart may be missing. Equal values may be shown once.

The microsomal CLint is the capacity of the preparation to metabolise the compound, expressed as a volume cleared per time. Lower therefore signals slow turnover. As a reminder, the Papp is the rate of passage across a membrane or cell layer, normalised by area and donor concentration. Low values mean slow passage, high ones fast passage. In general, solubility (kinetic) refers to solubility judged after dilution from a stock solution rather than from solid. What is called logD is lipophilicity at a set pH, counting ionised and neutral species. `CC(C)[C@H](Nc1ncnc2[nH]c(-c3cnn(C)c3C#N)cc12)c1ccc2c(c1)NC(=O)CO2` (racemic) yielded a kinetic solubility of 69 µM (≈ 30.5 µg/mL). In addition, the intrinsic clearance (microsomal CLint) in data set [1] is 100 µL/min/mg. In data set [2], this compound gave a Papp of 3.07 ×10⁻⁶ cm/s. The microsomal CLint in data set [3] amounted to 177 µL/min/mg. Also, the pH-dependent lipophilicity (logD) in data set [4] was 4.1.

Take `CC(C)[C@H](Nc1ncnc2[nH]c(-c3cnn(C)c3C#N)cc12)c1ccc2c(c1)OCCO2` (racemic): the solubility (kinetic) was found to be 17 µM (≈ 7.3 µg/mL). Further, the intrinsic clearance (microsomal CLint) in data set [1] stood at 74 µL/min/mg. The apparent permeability coefficient (Papp) in data set [2] turned out to be 4.2 ×10⁻⁶ cm/s. This compound gave a microsomal CLint in data set [3] of 218 µL/min/mg. Further, the pH-dependent lipophilicity (logD) in data set [4] was 3.

The compound `CC(C)[C@H](Nc1ncnc2[nH]c(-c3cnn(C)c3C#N)cc12)c1ccc2c(n1)OCCO2` (racemic) had a solubility (kinetic) of 89 µM (≈ 38.3 µg/mL). In addition, the microsomal CLint in data set [1] stood at 56 µL/min/mg. Further, the Papp in data set [2] was determined as 12.8 ×10⁻⁶ cm/s. Further, the microsomal CLint in data set [3] was 139 µL/min/mg. This compound also had a pH-dependent lipophilicity (logD) in data set [4] of 3.4.

Compound `CC(C)[C@H](Nc1ncnc2[nH]c(-c3cnn(CC(=O)N(C)C)c3)cc12)c1ccc2c(c1)OCCO2` (racemic) gave a solubility (kinetic) of 210 µM (≈ 99.9 µg/mL). Also, the microsomal CLint in data set [1] was found to be 142 µL/min/mg. The apparent permeability coefficient (Papp) in data set [2] was 1.14 ×10⁻⁶ cm/s. Besides, the microsomal CLint in data set [3] was 59 µL/min/mg. The logD in data set [4] is 2.3.

As for `CC(C)[C@H](Nc1ncnc2[nH]c(-c3cnn(CC(N)=O)c3)cc12)c1ccc2c(c1)NC(=O)CO2` (racemic), the solubility (kinetic) worked out at 25 µM (≈ 11.5 µg/mL). This compound also had a microsomal CLint in data set [1] of 17 µL/min/mg. Also, the Papp in data set [2] was 1.36 ×10⁻⁶ cm/s. Besides, the intrinsic clearance (microsomal CLint) in data set [3] was determined as 11 µL/min/mg. For the same compound, the logD in data set [4] turned out to be 2.5.

With `CC(C)[C@H](Nc1ncnc2[nH]c(-c3cnn(CC(N)=O)c3)cc12)c1ccc2c(c1)OCCO2` (racemic), the solubility (kinetic) was 345 µM (≈ 154 µg/mL). Besides, the intrinsic metabolic clearance (microsomal CLint) in data set [1] is 99 µL/min/mg. The compound further returned an apparent permeability (Papp) in data set [2] of 0.9 ×10⁻⁶ cm/s. Moreover, the microsomal CLint in data set [3] came to 41 µL/min/mg. For the same compound, the logD in data set [4] is 0.9.

With `CC(C)[C@H](Nc1ncnc2[nH]c(-c3cnn(CCC(N)=O)c3)cc12)c1ccc2c(c1)OCCO2` (racemic), the solubility (kinetic) was found to be 236 µM (≈ 109 µg/mL). Moreover, in data set [1], the microsomal CLint stood at 99 µL/min/mg. The Papp in data set [2] came to 1.46 ×10⁻⁶ cm/s. In data set [3], this compound had a microsomal CLint of 62 µL/min/mg. Moreover, the log distribution coefficient (logD) in data set [4] was determined as 3.

Regarding `CC(C)[C@H](Nc1ncnc2[nH]cc(C(N)=O)c12)c1ccc2c(c1)OCCO2` (racemic), the solubility (kinetic) was found to be 375 µM (≈ 138 µg/mL). This compound came in with an intrinsic clearance (microsomal CLint) in data set [1] of 143 µL/min/mg. The Papp in data set [2] amounted to 11.1 ×10⁻⁶ cm/s. This compound showed an intrinsic clearance (microsomal CLint) in data set [3] of 142 µL/min/mg. The logD in data set [4] came out at 3.2.

`CC(C)[C@H](Nc1ncnc2[nH]ccc12)c1ccc2c(c1)S(=O)(=O)CCC2` (racemic) gave a solubility (kinetic) of 385 µM (≈ 143 µg/mL). The intrinsic metabolic clearance (microsomal CLint) in data set [1] turned out to be 37 µL/min/mg. This compound returned an apparent permeability (Papp) in data set [2] of 3.3 ×10⁻⁶ cm/s. In addition, in data set [3], the microsomal CLint was 138 µL/min/mg. Also, the logD in data set [4] worked out at 2.5.

On to `CCNC(=O)c1cc2c(N[C@H](c3ccc4c(c3)OCCO4)C(C)C)ncnc2[nH]1` (racemic), for which the solubility (kinetic) was determined as 72 µM (≈ 28.5 µg/mL). Besides, the microsomal CLint in data set [1] was determined as 85 µL/min/mg. The same compound returned an apparent permeability (Papp) in data set [2] of 2.41 ×10⁻⁶ cm/s. The compound also had an intrinsic metabolic clearance (microsomal CLint) in data set [3] of 88 µL/min/mg. The compound further returned a logD in data set [4] of 3.

`CNC(=O)Cn1cc(-c2cc3c(N[C@H](c4ccc5c(c4)OCCO5)C(C)C)ncnc3[nH]2)cn1` (racemic): the solubility (kinetic) is 289 µM (≈ 133 µg/mL). The compound also displayed an intrinsic clearance (microsomal CLint) in data set [1] of 119 µL/min/mg. In data set [2], this compound registered a Papp of 1.94 ×10⁻⁶ cm/s. Further, the intrinsic clearance (microsomal CLint) in data set [3] is 47 µL/min/mg. In data set [4], this compound showed a logD of 2.9.

In turn, `CNC(=O)c1c[nH]c2ncnc(N[C@H](c3ccc4c(c3)OCCO4)C(C)C)c12` (racemic) had a kinetic solubility of 319 µM (≈ 122 µg/mL). The compound also displayed an intrinsic metabolic clearance (microsomal CLint) in data set [1] of 79 µL/min/mg. In data set [2], this compound gave an apparent permeability (Papp) of 16.2 ×10⁻⁶ cm/s. The same compound gave an intrinsic metabolic clearance (microsomal CLint) in data set [3] of 88 µL/min/mg. This compound also had a logD in data set [4] of 3.6.

Regarding `CNC(=O)c1cc2c(N[C@H](c3ccc4c(c3)NC(=O)CO4)C(C)C)ncnc2[nH]1` (racemic), the solubility (kinetic) was determined as 372 µM (≈ 147 µg/mL). The microsomal CLint in data set [1] was found to be 52 µL/min/mg. Further, in data set [2], the Papp amounted to 0.873 ×10⁻⁶ cm/s. This compound had an intrinsic clearance (microsomal CLint) in data set [3] of 20 µL/min/mg. The same compound gave a logD in data set [4] of 2.8.

With `CNC(=O)c1cc2c(N[C@H](c3ccc4c(c3)OCCO4)C(C)C)ncnc2[nH]1` (racemic), the solubility (kinetic) was found to be 380 µM (≈ 145 µg/mL). The microsomal CLint in data set [1] was determined as 79 µL/min/mg. This compound also came in with a Papp in data set [2] of 1.96 ×10⁻⁶ cm/s. For the same compound, in data set [3], the intrinsic clearance (microsomal CLint) was 55 µL/min/mg. In data set [4], this compound registered a logD of 2.76.

Regarding `COc1ccc2c(c1)CCN(c1ncnc3[nH]ccc13)[C@H]2C(C)C` (racemic), the kinetic solubility stood at 14 µM (≈ 4.51 µg/mL). Besides, the microsomal CLint in data set [1] turned out to be 60 µL/min/mg. In data set [2], this compound yielded a Papp of 7 ×10⁻⁶ cm/s. This compound showed a microsomal CLint in data set [3] of 321 µL/min/mg. The same compound yielded a logD in data set [4] of 4.33.

As for `Cn1ncc(-c2cc3c(N[C@H](c4ccc5c(c4)OCCO5)C(C)(C)C)ncnc3[nH]2)c1C#N` (racemic), the kinetic solubility came out at 25 µM (≈ 11.1 µg/mL). In data set [1], the microsomal CLint was 85 µL/min/mg. The apparent permeability coefficient (Papp) in data set [2] worked out at 2.79 ×10⁻⁶ cm/s. The same compound displayed a microsomal CLint in data set [3] of 199 µL/min/mg. Also, the pH-dependent lipophilicity (logD) in data set [4] worked out at 2.9.

As for `CNCc1cc(-c2cc3c(N[C@H](c4ccc5c(c4)S(=O)(=O)CCC5)C(C)C)ncnc3[nH]2)co1` (single isomer, unassigned), the kinetic solubility was 358 µM and 345 µM. Further, the intrinsic clearance (microsomal CLint) in data set [1] was 67 µL/min/mg and 133 µL/min/mg. In data set [3], the microsomal CLint was 40 µL/min/mg and 54 µL/min/mg. Moreover, the logD in data set [4] is 2.1 and 2.2.
